Measured values reported in patent publication US4517187A, “1,3,4,6,7-11b-Hexahydro-7-phenyl-2H-pyrazino[2,1-a]isoquinolines methods of preparation, and use as antidepressants” (Pennwalt Corporation, priority 1982, dated 1985).
pIC50: −log10 of the molar value. Where a name gives a salt, the structure may show the parent alone.

Tests used:
[1] = molecular target: binding of tritiated quinuclidinyl benzylate ([^3 H]-QNB) in brain; parameters: species or system rat; settings: in vitro; brain homogenates; read-out: (^3 H)QNB rating (molar concentration required to inhibit by 50% the binding of [^3 H]QNB)
[2] = molecular target: T1, histamine-stimulated adenylate cyclase (Cavia porcellus, UniProt P47747); assay: in vitro inhibition of histamine-stimulated adenylate cyclase (ad. cyc H); type: biochemical; settings: smaller numbers indicate greater potency, read-out: ad cyc H rating (molar concentration required to inhibit by 50% the stimulation of adenylate cyclase observed after treatment with histamine)
T1 construct: by the method developed by Kanof and Greengard; from tissue; host or cells: brain homogenate (guinea pig hippocampus/neocortex, inferred from the cited method)
T1 sequence (P47747 whole entry): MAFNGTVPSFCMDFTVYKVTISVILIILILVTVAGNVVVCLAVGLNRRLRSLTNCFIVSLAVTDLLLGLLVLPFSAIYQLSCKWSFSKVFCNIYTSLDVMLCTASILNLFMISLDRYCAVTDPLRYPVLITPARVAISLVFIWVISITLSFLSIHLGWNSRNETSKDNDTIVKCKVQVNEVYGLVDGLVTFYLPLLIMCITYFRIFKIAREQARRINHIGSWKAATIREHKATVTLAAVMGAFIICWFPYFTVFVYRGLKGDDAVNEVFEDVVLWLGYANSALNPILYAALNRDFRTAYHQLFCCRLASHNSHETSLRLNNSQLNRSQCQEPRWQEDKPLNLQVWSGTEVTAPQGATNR

[3] = molecular target: T2, specific binding of tritiated mepyramine ([^3 H]-mepyramine) in brain (Rattus norvegicus, UniProt P31390); assay: in vitro inhibition of the specific binding of [3H]-mepyramine in brain; settings: brain homogenates, read-out: (^3 H)mepyramine rating (molar concentration required to inhibit by 50% the binding of [^3 H]mepyramine)
T2 construct: rate brain homogenates; from tissue; host or cells: rat brain homogenate
T2 sequence (P31390 whole entry): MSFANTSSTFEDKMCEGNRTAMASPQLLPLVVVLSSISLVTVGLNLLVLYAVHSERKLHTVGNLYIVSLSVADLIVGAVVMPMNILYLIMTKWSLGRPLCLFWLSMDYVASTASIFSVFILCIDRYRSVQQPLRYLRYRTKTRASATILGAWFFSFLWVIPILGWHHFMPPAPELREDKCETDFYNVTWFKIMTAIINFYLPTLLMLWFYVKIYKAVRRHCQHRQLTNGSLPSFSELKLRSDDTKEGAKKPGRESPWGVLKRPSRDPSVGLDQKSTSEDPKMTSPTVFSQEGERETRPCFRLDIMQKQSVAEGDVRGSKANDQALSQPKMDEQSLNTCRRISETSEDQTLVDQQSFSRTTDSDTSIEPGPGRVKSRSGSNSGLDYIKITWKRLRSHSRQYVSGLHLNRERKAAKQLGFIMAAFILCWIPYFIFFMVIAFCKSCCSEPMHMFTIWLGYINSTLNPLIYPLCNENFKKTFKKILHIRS

| Compound | pIC50 [1] | pIC50 [2] | pIC50 [3] |
| --- | --- | --- | --- |
| CN1CCN2C[C@@H](c3ccccc3)c3ccccc3[C@@H]2C1 (relative stereo) [Example 1, cis-1,3,4,6,7,11b-Hexahydro-2-methyl-7-phenyl-2H-pyrazino[2,1-a]isoquinoline dihydrochloride] | 6.60 | 5.17 | 7.70 |
| CN1CCN2C[C@@H](c3ccccc3)c3ccccc3[C@H]2C1 (relative stereo) [Example 2, trans-1,3,4,6,7,11b-Hexahydro-2-methyl-7-phenyl-2H-pyrazino[2,1-a]isoquinoline dihydrochloride] | 5.48 | < 5.00 | < 6.00 |
| CCN1CCN2C[C@@H](c3ccccc3)c3ccccc3[C@@H]2C1 (relative stereo) [Example 3, cis-1,3,4,6,7,11b-Hexahydro-2-ethyl-7-phenyl-2H-pyrazino[2,1-a]isoquinoline dihydrochloride] | 5.96 | < 5.00 | 6.47 |
| c1ccc([C@@H]2CN3CCNC[C@H]3c3ccccc32)cc1 (relative stereo) [Example 4, cis-1,3,4,6,7,11b-Hexahydro-7-phenyl-2H-pyrazino[2,1-a]isoquinoline dihydrochloride] | 6.04 | < 5.00 | < 6.00 |
